Like-named read-outs stand apart in the source and are kept apart here.
System: MV4:11 human cancer cell lines
Test: Cellular viability / anti-proliferative activity, CellTiter-Glo, 5 day protocol
Type: cell-based
Settings: Homo sapiens, MV4-11, 120 h, read-out: GI50 on cellular proliferation of MV4:11 human cancer cell lines
Description: Cellular Viability of Human Tumor Cell Lines
Anti proliferative activity using MLL-harboring cell lines. […] Viability assays are performed by dispensing 200 cells at 7200 cells/mL into each well of an opaque 384-well plate and adding compounds at the indicated concentrations in a final volume of 32 μL and a final concentration of DMSO of 0.3% for all samples. A certain range of compound concentrations is made through a series of 2-fold dilutions starting 30 μM at the highest, total 22 dilutions. After a set incubation period, 5 day protocol, the viability of cells in each well is assessed using the CellTiter-Glo assay (Promega), read on a 96 Microplane Luminometer (Cytation 3, BioTek). Serial dilutions of each cell type are performed in all assays to generate standard curves and the final densities of cells are determined within the dynamic range of the instrument. GI50 values are calculated based on XLfit software (IDBS, Guildford, UK) with Sigmoidal Dose-Response Model. Each compound is tested in minimum of two replicates. Data are expressed as mean.

[1] = MV4:11 cells, 5 day incubation, CellTiter-Glo, mean of minimum two replicates

Row | SMILES | GI50 [1] [nM] | GI50 [nM]
1 | O=C1c2cc(Cn3ccnc3)ccc2CCN1Cc1cc(Cl)cc(Cl)c1 [Example 1, 7-((1H-Imidazol-1-yl)methyl)-2-(3,5-dichlorobenzyl)-3,4-dihydroisoquinolin-1(2H)-one] | 239 | –
2 | Cc1nccn1Cc1ccc2c(c1)C(=O)N(Cc1cc(Cl)cc(Cl)c1)CC2 [Example 2, 2-(3,5-Dichlorobenzyl)-7-((2-methyl-1H-imidazol-1-yl)methyl)-3,4-dihydroisoquinolin-1(2H)-one] | > 938 | –
3 | Cc1cc(CN2CCc3c(cc(Cn4ccnc4C)cc3-c3cccnc3C)C2=O)ccc1Cl [Example 7, 2-(4-Chloro-3-methylbenzyl)-7-((2-methyl-1H-imidazol-1-yl)methyl)-5-(2-methylpyridin-3-yl)-3,4-dihydroisoquinolin-1(2H)-one] | 572 | –
4 | COc1cc(CN2CCc3c(cc(Cn4ccnc4C)cc3-c3cn(C)nc3C(F)(F)F)C2=O)cc(OC)c1 [Example 10, 2-(3,5-Dimethoxybenzyl)-7-((2-methyl-1H-imidazol-1-yl)methyl)-5-(1-methyl-3-(trifluoromethyl)-1H-pyrazol-4-yl)-3,4-dihydroisoquinolin-1(2H)-one] | < 50 | –
5 | COc1ccnc(CN2CCc3c(cc(Cn4ccnc4C4CC4)cc3-c3cn(C)nc3C(F)(F)F)C2=O)c1 [Example 11, 7-((2-Cyclopropyl-1H-imidazol-1-yl)methyl)-2-((4-methoxypyridin-2-yl)methyl)-5-(1-methyl-3-(trifluoromethyl)-1H-pyrazol-4-yl)-3,4-dihydroisoquinolin-1(2H)-one] | 54 | –
6 | Cc1ccnc([C@H](C2CC2)N2CCc3c(cc(Cn4ccnc4C)cc3-c3ccc(F)cc3C)C2=O)c1 [Example 12, (S)-2-(Cyclopropyl(4-methylpyridin-2-yl)methyl)-5-(4-fluoro-2-methylphenyl)-7-((2-methyl-1H-imidazol-1-yl)methyl)-3,4-dihydroisoquinolin-1(2H)-one] | 69 | –
7 | CCn1cc(CN2CCc3c(cc(Cn4ccnc4C)cc3-c3cn(CC)nc3C(F)(F)F)C2=O)nn1 [Example 15, 2-((1-Ethyl-1H-1,2,3-triazol-4-yl)methyl)-5-(1-ethyl-3-(trifluoromethyl)-1H-pyrazol-4-yl)-7-((2-methyl-1H-imidazol-1-yl)methyl)-3,4-dihydroisoquinolin-1(2H)-one] | 76 | –
8 | COc1cc(CN2CCc3c(cc(Cn4cc(C)nc4C)cc3-c3ccc(F)cc3C)C2=O)cc(OC)c1 [Example 18, 2-(3,5-Dimethoxybenzyl)-7-((2,4-dimethyl-1H-imidazol-1-yl)methyl)-5-(4-fluoro-2-methylphenyl)-3,4-dihydroisoquinolin-1(2H)-one] | > 938 | –
9 | COc1cc(CN2CCc3c(OCC4CC4)cc(Cn4ccnc4C4CC4)cc3C2=O)cc(OC)c1 [Example 19, 7-((2-Cyclopropyl-1H-imidazol-1-yl)methyl)-5-(cyclopropylmethoxy)-2-(3,5-dimethoxybenzyl)-3,4-dihydroisoquinolin-1(2H)-one] | > 938 | –
10 | CCc1ccnc(CN2CCc3c(cc(Cn4ccnc4C)cc3-c3cn(CC)nc3C(F)(F)F)C2=O)c1 [Example 21, 5-(1-Ethyl-3-(trifluoromethyl)-1H-pyrazol-4-yl)-2-((4-ethylpyridin-2-yl)methyl)-7-((2-methyl-1H-imidazol-1-yl)methyl)-3,4-dihydroisoquinolin-1(2H)-one] | < 50 | –
11 | Cc1cc([C@H](C)N2CCc3c(cc(Cn4ccnc4C)cc3-c3cn(C)nc3C(F)(F)F)C2=O)ccc1F [Example 24, (S)-2-(1-(4-Fluoro-3-methylphenyl)ethyl)-7-((2-methyl-1H-imidazol-1-yl)methyl)-5-(1-methyl-3-(trifluoromethyl)-1H-pyrazol-4-yl)-3,4-dihydroisoquinolin-1(2H)-one] | < 50 | –
12 | Cn1ccn(Cc2cc3c(cc2F)CCN(Cc2ccc(Cl)c(Cl)c2)C3=O)c1=N [Example 26, 2-(3,4-Dichlorobenzyl)-6-fluoro-7-((2-imino-3-methyl-2,3-dihydro-1H-imidazol-1-yl)methyl)-3,4-dihydroisoquinolin-1(2H)-one] | > 938 | –
13 | Cc1ccnc(C(C2CC2)N2CCc3c(cc(Cn4ccn(C)c4=N)cc3-c3ccc(F)cc3C)C2=O)c1 (stereo not drawn) [Example 30, 2-(Cyclopropyl(4-methylpyridin-2-yl)methyl)-5-(4-fluoro-2-methylphenyl)-7-((2-imino-3-methyl-2,3-dihydro-1H-imidazol-1-yl)methyl)-3,4-dihydroisoquinolin-1(2H)-one] | – | 95

Continued, in another order:

Row | GI50 [1] [nM] | SMILES | GI50 [nM]
14 | > 938 | Cc1cc(CN2CCc3c(cc(Cn4ccnc4C)cc3-c3ccccc3)C2=O)ccc1Cl [Example 5, 2-(4-Chloro-3-methylbenzyl)-7-((2-methyl-1H-imidazol-1-yl)methyl)-5-phenyl-3,4-dihydroisoquinolin-1(2H)-one] | –
15 | 301 | COc1cc(CN2CCc3c(cc(Cn4ccnc4C)cc3-c3ccc(F)cc3C)C2=O)cc(OC)c1 [Example 6, 2-(3,5-Dimethoxybenzyl)-5-(4-fluoro-2-methylphenyl)-7-((2-methyl-1H-imidazol-1-yl)methyl)-3,4-dihydroisoquinolin-1(2H)-one] | –
16 | < 50 | COc1ccnc(CN2CCc3c(cc(Cn4ccnc4C)cc3-c3cn(C)nc3C(F)(F)F)C2=O)c1 [Example 8, 2-((4-Methoxypyridin-2-yl)methyl)-7-((2-methyl-1H-imidazol-1-yl)methyl)-5-(1-methyl-3-(trifluoromethyl)-1H-pyrazol-4-yl)-3,4-dihydroisoquinolin-1(2H)-one] | –
17 | 553 | COc1ccnc(CN2CCc3c(cc(Cn4ccnc4C4CC4)cc3-c3cn(C)nc3C)C2=O)c1 [Example 9, 7-((2-Cyclopropyl-1H-imidazol-1-yl)methyl)-5-(1,3-dimethyl-1H-pyrazol-4-yl)-2-((4-methoxypyridin-2-yl)methyl)-3,4-dihydroisoquinolin-1(2H)-one] | –
18 | 105 | CCc1nccn1Cc1cc2c(c(-c3ccc(F)cc3C)c1)CCN([C@H](c1cc(C)ccn1)C1CC1)C2=O [Example 13, (S)-2-(Cyclopropyl(4-methylpyridin-2-yl)methyl)-7-((2-ethyl-1H-imidazol-1-yl)methyl)-5-(4-fluoro-2-methylphenyl)-3,4-dihydroisoquinolin-1(2H)-one] | –
19 | > 938 | CCn1cc(-c2cc(Cn3ccnc3C3CC3)cc3c2CCN(Cc2cc(C)nn2C)C3=O)c(C(F)(F)F)n1 [Example 14, 7-((2-Cyclopropyl-1H-imidazol-1-yl)methyl)-2-((1,3-dimethyl-1H-pyrazol-5-yl)methyl)-5-(1-ethyl-3-(trifluoromethyl)-1H-pyrazol-4-yl)-3,4-dihydroisoquinolin-1(2H)-one] | –
20 | > 938 | COc1cc(CN2CCc3c(cc(Cn4ccnc4C4CC4)cc3-c3ccc(F)cc3C)C2=O)cc(OC)c1 [Example 16, 7-((2-Cyclopropyl-1H-imidazol-1-yl)methyl)-2-(3,5-dimethoxybenzyl)-5-(4-fluoro-2-methylphenyl)-3,4-dihydroisoquinolin-1(2H)-one] | –
21 | 360 | COc1cc(CN2CCc3c(cc(Cn4cc(C)nc4C)cc3-c3cn(C)nc3C(F)(F)F)C2=O)cc(OC)c1 [Example 17, 2-(3,5-Dimethoxybenzyl)-7-((2,4-dimethyl-1H-imidazol-1-yl)methyl)-5-(1-methyl-3-(trifluoromethyl)-1H-pyrazol-4-yl)-3,4-dihydroisoquinolin-1(2H)-one] | –
22 | 508 | CCn1cc(-c2cc(Cn3ccnc3C)cc3c2CCN(Cc2cn(C)nc2C)C3=O)c(C(F)(F)F)n1 [Example 20, 2-((1,3-Dimethyl-1H-pyrazol-4-yl)methyl)-5-(1-ethyl-3-(trifluoromethyl)-1H-pyrazol-4-yl)-7-((2-methyl-1H-imidazol-1-yl)methyl)-3,4-dihydroisoquinolin-1(2H)-one] | –
23 | 145 | CCc1ccnc(CN2CCc3c(cc(Cn4cc(C)nc4C)cc3-c3cn(CC)nc3C(F)(F)F)C2=O)c1 [Example 22, 7-((2,4-Dimethyl-1H-imidazol-1-yl)methyl)-5-(1-ethyl-3-(trifluoromethyl)-1H-pyrazol-4-yl)-2-((4-ethylpyridin-2-yl)methyl)-3,4-dihydroisoquinolin-1(2H)-one] | –
24 | > 938 | Cc1cc([C@H](C)N2CCc3c(OCC4CC4)cc(Cn4ccnc4C4CC4)cc3C2=O)ccc1F [Example 23, (S)-7-((2-Cyclopropyl-1H-imidazol-1-yl)methyl)-5-(cyclopropylmethoxy)-2-(1-(4-fluoro-3-methylphenyl)ethyl)-3,4-dihydroisoquinolin-1(2H)-one] | –
25 | > 938 | COc1cc(CN2CCc3cc(F)c(Cn4ccn(C)c4=N)cc3C2=O)cc(OC)c1 [Example 25, 2-(3,5-Dimethoxybenzyl)-6-fluoro-7-((2-imino-3-methyl-2,3-dihydro-1H-imidazol-1-yl)methyl)-3,4-dihydroisoquinolin-1(2H)-one] | –
26 | > 938 | Cc1cc(CN2CCc3c(cc(Cn4ccn(C)c4=N)cc3-c3cccnc3C)C2=O)ccc1Cl [Example 27, 2-(4-Chloro-3-methylbenzyl)-7-((2-imino-3-methyl-2,3-dihydro-1H-imidazol-1-yl)methyl)-5-(2-methylpyridin-3-yl)-3,4-dihydroisoquinolin-1(2H)-one] | –
27 | > 938 | Cc1cc(CN2CCc3c(cc(Cn4ccn(C)c4=N)cc3-c3ccc(F)cc3C)C2=O)ccc1Cl [Example 28, 2-(4-Chloro-3-methylbenzyl)-5-(4-fluoro-2-methylphenyl)-7-((2-imino-3-methyl-2,3-dihydro-1H-imidazol-1-yl)methyl)-3,4-dihydroisoquinolin-1(2H)-one] | –
